Read-outs that look alike come from different tables or passages of the source.
Key:
[1] = target: T1, CYP3A4 (Homo sapiens, UniProt P08684); assay: Cytochrome P450 inhibition (BD GenTest kit, BFC substrate), CYP3A4; type: in vitro ADME
T1 construct: purchased BD GenTest, Woburn, Mass
From the text: Following the procedure of Examples 39 (when R=methyl) and 42 (when R=CF3), the additional compounds shown in Table 2 were made by replacing (2-(tert-butyldimethyl-silyloxy)-methylthiazol-4-yl)methyltri-n-butyl-phosphonium chloride with the corresponding phosphonium chloride. Cytotoxicity data (Table 2) was obtained as described in Example 48. Cytochrome P450 inhibition data (Table 3) was obtained using the initial rate method against BFC substrate.
Cytochrome P450 inhibition measurements were performed using a commercially-available kit (BD GenTest, Woburn, Mass.), using BFC as substrate against CYP3A4.

[2] = test system: Human breast carcinoma cell line MCF-7; assay: SRB cytotoxicity assay, MCF-7; type: cell-based
Procedure: (§1) Compounds of the invention may be screened for cytotoxicity using conventional assays well known to those skilled in the art. For example, cytotoxicity of the compounds may be determined by the SRB assay as disclosed in Skehan et al., J. Natl. Cancer Inst. 82:1107-1112 (1990), which is incorporated herein by reference. In the SRB assay, the following cultured cells are trypsinized, counted and diluted to the following concentrations per 100 μl with growth medium: MCF-7, 5000; NCI/ADR-Res, 7500; NCI-H460, 5000; A549, 5000; Skov3, 7500; and SF-268, 7500. The cells are seeded at 100 μl/well in 96-well microtiter plates. Twenty-four hours later, 100 μl of a test epothilone compound of the invention (ranging in concentration from 1000 nM to 0.001 nM diluted in growth medium) is added to each well. After incubation, with the compound for a period of days, the cells are fixed with 100 μl of 10% trichloroacetic acid (“TCA”) at 4 degrees for 1 hour, and stained with 0.2% sulforhodamine B (SRB)/1% acetic acid, and the bound SRB is then extracted with 200 μl of 10 mM Tris base. The amount of bound dye is determined by OD 515 nm, which correlates to the total cellular protein contents. The data is analyzed using standard statistical methodologies (such as those available with the software sold as KALEIDA GRAPH® by Synergy Software of Reading, Pa.) and the IC50s are calculated.
(§2) Human breast carcinoma cell line MCF-7, multi-drug resistant breast carcinoma cell line NCI/ADR, were obtained from the National Cancer Institute. Human non-small cell lung cancer cell line A549 and human ovarian cancer cell line SKOV-3 were obtained from American Type Culture Collection (Manassas, Va.). All cell lines were maintained in RPMI-1640 medium (Gibco/BRL, Rockville, Md.) supplemented with 2 mM L-glutamine, 25 mM HEPES and 10% FBS (Hyclone, Logan, Utah). Cells were maintained in a humidified incubator at 37° C. in 5% CO2.
(§3) Tumor cells were seeded in 100 μl at 5000 (MCF-7), 7500 (NCI/ADR), 5000 (A549) and 7500 (SKOV3) cells per well in 96-well plates. Cells were allowed to adhere for 24 hours. Each compound ranging from 0.001 to 1000 nM in 100 μl was added to cells in duplicate wells. After 3 days, cells were fixed at 4° C. for 1 hour with 10% trichloroacetic acid and then stained with 0.2% sulforhodamine B (SRB)/1% acetic acid for 20 minutes at room temperature. The unbound dye was rinsed away with 1% acetic acid, and the bounded SRB was then extracted with 200 μl of 10 mM Tris base. The absorbance was measured at 515 nm using a 96-well microtiter plate reader (Spectra Max 250, Molecular Devices). The IC50 values were calculated using a KaleidaGraph program. The experiments were performed twice.

[3] = Compound solubility in phosphate-buffered saline; type: physicochemical; details: aqueous buffer, kinetic from dmso stock; 5 μL of 20 mg/mL DMSO stock in 95 μL phosphate-buffered saline, 0.45 micron filter, HPLC
Procedure: Compound solubility was determined as follows: 5 μL of stock solution (at 20 mg/mL in DMSO) was added to 95 μL of phosphate-buffered saline. After being vortexed for about 10 seconds, the solution/suspension was filtered through a 0.45 micron filter and the amount of analyte was quantitated by HPLC. Solubilities (mg/mL) determined were as follows: epothilone D, <0.06; trans-9,10-dehydroepothilone D, <0.06; 21-OH-26-F3-trans-9,10-dehydroepothilone D, 0.1; 21-amino-trans-9,10-dehydroepothilone D, >0.6; 21-amino-26-F3-trans-9,10-dehydroepothilone D, >0.6; 26-F3-trans-9,10-dehydroepothilone D, <0.06; 21-OH-trans-9,10-dehydroepothilone D, 0.1; KOSN 1635, <0.02; KOSN 1632, 0.12.

[4] = target: T2, CYP2C9 (Homo sapiens, UniProt P11712); assay: Cytochrome P450 inhibition, CYP2C9; type: in vitro ADME
T2 construct: purchased BD GenTest, Woburn, Mass
T2 sequence (P11712 whole entry): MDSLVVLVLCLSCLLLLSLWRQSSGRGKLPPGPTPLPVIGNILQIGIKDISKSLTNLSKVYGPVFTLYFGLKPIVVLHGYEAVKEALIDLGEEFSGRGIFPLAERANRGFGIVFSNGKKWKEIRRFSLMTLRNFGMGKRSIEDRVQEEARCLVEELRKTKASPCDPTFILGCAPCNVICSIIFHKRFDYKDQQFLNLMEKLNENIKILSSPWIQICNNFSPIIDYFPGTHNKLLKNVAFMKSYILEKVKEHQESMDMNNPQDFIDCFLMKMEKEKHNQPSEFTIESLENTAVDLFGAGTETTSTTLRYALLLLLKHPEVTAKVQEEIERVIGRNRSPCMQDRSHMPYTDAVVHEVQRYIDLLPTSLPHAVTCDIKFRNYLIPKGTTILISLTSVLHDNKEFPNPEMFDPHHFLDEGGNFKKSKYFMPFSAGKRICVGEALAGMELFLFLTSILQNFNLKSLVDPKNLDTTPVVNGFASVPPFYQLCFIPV

[5] = test system: human ovarian cancer cell line SKOV-3; assay: SRB cytotoxicity assay, SKOV3; type: cell-based
Procedure: as §1, §2, §3

[6] = target: T3, CYP2C19 (Homo sapiens, UniProt P33261); assay: Cytochrome P450 inhibition, CYP2C19; type: in vitro ADME
T3 construct: purchased BD GenTest, Woburn, Mass
T3 sequence (P33261 whole entry): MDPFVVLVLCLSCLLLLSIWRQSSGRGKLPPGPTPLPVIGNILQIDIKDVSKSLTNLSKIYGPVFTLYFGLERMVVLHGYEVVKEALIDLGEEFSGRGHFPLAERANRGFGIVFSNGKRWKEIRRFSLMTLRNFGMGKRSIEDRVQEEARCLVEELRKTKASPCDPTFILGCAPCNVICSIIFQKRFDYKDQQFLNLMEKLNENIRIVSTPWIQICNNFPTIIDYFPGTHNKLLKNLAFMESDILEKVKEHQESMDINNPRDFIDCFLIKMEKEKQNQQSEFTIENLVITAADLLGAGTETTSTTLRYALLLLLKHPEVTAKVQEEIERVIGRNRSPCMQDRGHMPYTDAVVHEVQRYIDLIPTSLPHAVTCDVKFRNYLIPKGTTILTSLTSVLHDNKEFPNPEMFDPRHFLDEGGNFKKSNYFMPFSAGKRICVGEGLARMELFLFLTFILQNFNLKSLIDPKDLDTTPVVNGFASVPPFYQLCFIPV

[7] = Half-life in mouse plasma
Procedure: […] At Time Zero, aliquotted 75 μl from each sample and added 150 μl of acetonitrile. Centrifuged the white precipitate at 13500 rpm for 3 minutes. Transferred all the clear supernatant into another microcentrifuge tube and repeated the centrifuging step (13500 rpm/3 min). Carefully pipetted 150 μl of the clear supernatant into labeled HPLC sample tubes and tried to avoid pipetting any protein pellets. The samples were analyzed by HPLC to measure remaining compound at each time point by comparison with authentic standards.

[8] = test system: Human non-small cell lung cancer cell line A549; assay: SRB cytotoxicity assay, A549; type: cell-based
Procedure: as §1, §2, §3

[9] = Plasma protein binding (ultrafiltration); type: in vitro ADME; details: mouse or human plasma (species not given), 37° C.
Procedure: Plasma protein binding studies were performed as follows. Compounds were dissolved in DMSO, then diluted into either fresh or thawed samples of mouse or human plasma and incubated at 37° C. Time points of 50 μL were mixed with 100 μl of acetonitrile and centrifuged at ˜14000 rpm for 3 minutes. A 100 μL aliquot was removed from the supernatant and set aside for analysis to indicate compound in the total fraction. The remaining supernatant was transferred onto a Microcon ultrafiltration device fitted with a YM10 membrane and centrifuged to separate protein-bound material. A 50 μL aliquot of the protein-free filtrate was mixed with 100 μL of acetonitrile, centrifuged at ˜14000 rpm for 3 minutes, then 100 μL of the supernatant was collected and analyzed to determine the amount of compound not protein bound. The amount of compound in the total sample and in the protein-free fraction were determined by HPLC analysis against authentic standards.

[10] = Half-life in human plasma; details: fresh human plasma
Procedure: Half-lives of compounds in fresh mouse and human plasma were determined by dissolving the compounds in DMSO and adding aliquots to samples of mouse or human plasma. At Time Zero, aliquotted 75 μl from each sample and added 150 μl of acetonitrile. Centrifuged the white precipitate at 13500 rpm for 3 minutes. Transferred all the clear supernatant into another microcentrifuge tube and repeated the centrifuging step (13500 rpm/3 min). Carefully pipetted 150 μl of the clear supernatant into labeled HPLC sample tubes and tried to avoid pipetting any protein pellets. The samples were analyzed by HPLC to measure remaining compound at each time point by comparison with authentic standards.

[11] = test system: multi-drug resistant breast carcinoma cell line NCI/ADR; assay: SRB cytotoxicity assay, NCI/ADR; type: cell-based, human
Procedure: as §1, §2, §3

[12] = Homo sapiens, MCF7, 72 h, Table 1, 3 days, SRB, read-out: IC50 MCF-7
[13] = Homo sapiens, SK-OV-3, 72 h, Table 1, 3 days, SRB, read-out: IC50 SKOV3
[14] = Homo sapiens, A549, 72 h, Table 1, 3 days, SRB, read-out: IC50 A549
[15] = Homo sapiens, NCI/ADR-RES, 72 h, Table 1, 3 days, SRB, read-out: IC50 NCI/ADR
[16] = Table 2, as described in Example 48, read-out: IC50 (nM) MCF-7
[17] = Table 2, as described in Example 48, read-out: IC50 (nM) Skov
[18] = Table 2, as described in Example 48, read-out: IC50 (nM) A549
[19] = Table 2, as described in Example 48, read-out: IC50 (nM) NCI/ADR

T1 sequence (P08684 whole entry): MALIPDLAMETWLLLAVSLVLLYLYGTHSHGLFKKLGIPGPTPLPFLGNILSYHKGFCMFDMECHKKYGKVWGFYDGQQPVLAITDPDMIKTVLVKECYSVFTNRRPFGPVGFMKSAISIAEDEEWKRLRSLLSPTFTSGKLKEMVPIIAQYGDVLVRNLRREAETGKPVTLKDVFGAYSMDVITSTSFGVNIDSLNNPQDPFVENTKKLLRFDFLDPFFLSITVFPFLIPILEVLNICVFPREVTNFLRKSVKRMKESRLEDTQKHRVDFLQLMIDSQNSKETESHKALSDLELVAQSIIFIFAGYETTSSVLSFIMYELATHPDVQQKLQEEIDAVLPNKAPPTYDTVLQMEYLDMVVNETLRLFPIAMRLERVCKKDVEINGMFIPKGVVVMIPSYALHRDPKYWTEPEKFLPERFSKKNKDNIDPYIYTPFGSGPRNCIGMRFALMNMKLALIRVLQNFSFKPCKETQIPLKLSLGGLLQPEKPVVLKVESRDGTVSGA

Row | SMILES | IC50 [2, 12] [nM] | solubility [3] [µg/mL] | IC50 [5, 13] [nM] | IC50 [8, 14] [nM] | IC50 [11, 15] [nM] | IC50 [2, 16] [nM] | IC50 [5, 17] [nM] | IC50 [8, 18] [nM] | IC50 [11, 19] [nM] | other results
1 | C/C1=C/C[C@@H](/C(C)=C/c2csc(C)n2)OC(=O)C[C@H](O)C(C)(C)C(=O)[C@H](C)[C@@H](O)[C@@H](C)/C=C/C1 (relative stereo) [9,10-dehydroepothilone D, trans-9,10-dehydroepothilone D] | 2 | < 60 | 6.2 | 4.7 | 6.2 |  |  |  |  | IC50 [1]: 1600 nM; IC50 ([4]; human): 10800 nM; IC50 ([6]; human): 2000 nM; half-life ([7]; frozen mouse plasma): 0.783 h; percentage of compound protein bound [9]: 96.6%; half-life [10]: > 24 h
2 | C/C(=C\c1csc(C)n1)[C@@H]1C/C=C(/C(F)(F)F)C/C=C/[C@H](C)[C@H](O)[C@@H](C)C(=O)C(C)(C)[C@@H](O)CC(=O)O1 (relative stereo) [26-trifluoro 9,10-dehydroepothilone D, 26-trifluoro-trans-9,10-dehydroepothilone D, reference compound] | 5.3 | < 60 | 22 | 11 | 33 |  |  |  |  | IC50 [1]: 2000 nM; IC50 ([4]; human): 14400 nM; IC50 ([6]; human): 3200 nM; half-life ([7]; fresh mouse plasma): 2.72 h; percentage of compound protein bound [9]: 96.5%; half-life [10]: > 24 h
3 | C/C1=C/C[C@@H](/C(C)=C/c2ccc3ccccc3n2)OC(=O)C[C@H](O)C(C)(C)C(=O)[C@H](C)[C@@H](O)[C@@H](C)/C=C/C1 [17-des(2-methyl-4-thiazolyl)-17-(2-quinolyl)-9,10-dehydropeothilone D] | 8.9 |  | 19 | 25 | 24 |  |  |  |  | 
4 | C/C1=C/C[C@@H](/C(C)=C/c2csc(CN)n2)OC(=O)C[C@H](O)C(C)(C)C(=O)[C@H](C)[C@@H](O)[C@@H](C)/C=C/C1 [21-NH2 9,10-dehydroepothilone D, 21-amino-9,10-dehydro-epothilone D] | 3.2 | > 600 | 5.7 | 5.9 | 25 |  |  |  |  | IC50 [1]: 610 nM; IC50 ([4]; human): 830 nM; IC50 ([6]; human): 630 nM; half-life ([7]; fresh mouse plasma): 0.983 h; percentage of compound protein bound [9]: 89.5%; half-life [10]: > 24 h
5 | C/C(=C\c1csc(CN)n1)[C@@H]1C/C=C(/C(F)(F)F)C/C=C/[C@H](C)[C@H](O)[C@@H](C)C(=O)C(C)(C)[C@@H](O)CC(=O)O1 [21-amino-9,10-dehydro-26-trifluoroepothilone D] | 9.7 | > 600 | 40 | 35 | 330 |  |  |  |  | 
6 | C/C1=C/C[C@@H](/C(C)=C/n2nnc3ccccc32)OC(=O)C[C@H](O)C(C)(C)C(=O)[C@H](C)[C@@H](O)[C@@H](C)/C=C/C1 [KOSN-1674] |  |  |  |  |  | 34 | 50 | 42 | 180 | 
7 | C/C1=C/C[C@@H](/C(C)=C/c2cccnc2)OC(=O)C[C@H](O)C(C)(C)C(=O)[C@H](C)[C@@H](O)[C@@H](C)/C=C/C1 [KOSN-1690] |  |  |  |  |  | 35 | 39 | 38 | 110 | 
8 | C/C1=C/C[C@@H](/C(C)=C/c2ccc(CO)cn2)OC(=O)C[C@H](O)C(C)(C)C(=O)[C@H](C)[C@@H](O)[C@@H](C)/C=C/C1 [KOSN-1703] |  |  |  |  |  | 0.61 | 4.5 | 2.4 | 7.1 | IC50 [4]: 4000 nM; IC50 [6]: 10200 nM
9 | C/C1=C/C[C@@H](/C(C)=C/c2c[nH]cn2)OC(=O)C[C@H](O)C(C)(C)C(=O)[C@H](C)[C@@H](O)[C@@H](C)/C=C/C1 [KOSN-1712] |  |  |  |  |  | 20 | 37 | 31 | 220 | 
10 | C/C1=C/C[C@@H](/C(C)=C/c2cc(C)on2)OC(=O)C[C@H](O)C(C)(C)C(=O)[C@H](C)[C@@H](O)[C@@H](C)/C=C/C1 [KOSN-1724] |  |  |  |  |  | 2.5 | 5.3 | 5.3 | 6.1 | IC50 [4]: 12900 nM; IC50 [6]: 10900 nM
11 | C/C1=C/C[C@@H](/C(C)=C/c2csc(CN3CCOCC3)n2)OC(=O)C[C@H](O)C(C)(C)C(=O)[C@H](C)[C@@H](O)[C@@H](C)/C=C/C1 [KOSN-1727] |  |  |  |  |  | 390 | 490 | 420 | 410 | 
12 | COc1ccnc(/C=C(\C)[C@@H]2C/C=C(/C)C/C=C/[C@H](C)[C@H](O)[C@@H](C)C(=O)C(C)(C)[C@@H](O)CC(=O)O2)c1 [KOSN-1756] |  |  |  |  |  | 2.1 | 4 | 4 | 4.9 | IC50 [4]: 7100 nM; IC50 [6]: 1900 nM
13 | COC(=O)c1ccc(/C=C(\C)[C@@H]2C/C=C(/C)C/C=C/[C@H](C)[C@H](O)[C@@H](C)C(=O)C(C)(C)[C@@H](O)CC(=O)O2)nc1 [KOSN-1765] |  |  |  |  |  | 44 | 220 | 350 | 360 | 
